{
  "source": "patent US5652334A",
  "about": "“Method for design of substances that enhance memory and improve the quality of life” (City of Hope, priority 1993, dated 1997)",
  "key": {"CD-1 male mice [1]": {"system": "CD-1 male mice", "experiment": "Footshock active avoidance training (FAAT) in T-maze, amnesia test in well-trained mice, post-training ICV injection", "assay_type": "in vivo", "settings": "for amnestic effect on retention of FAAT: 6.14 nmol of peptide per mouse (except dose-response curves), well-trained mice, retention tested one week later; for amnestic efficacy/potency compared with another peptide: dose-response curves / FIG. 19", "experimental": "(§1) Test Animals. After 1 week in the laboratory, CD-1 male mice obtained from Charles River Breeding Laboratories were caged individually 24-28 hours prior to training and remained singly housed until retention was tested one week later. Animal rooms were on a 12 hour light/dark cycle with lights going on at the hour of 0600. Median body weight was 35 g, with a range of 33-38 g. Mice were assigned randomly to groups of 15 in the experiments reported in FIGS. 1-18 and groups of 10 for the dose-response curves (FIGS. 19 and 20) and were trained and tested between the hours of 0700 and 1500.\n(§2) Peptides Tested. With the exception of Val Phe and Phe Val from Sigma, all peptides used in these studies were synthesized and analyzed to establish purity by standard methods at the Beckman Research Institute. Peptides were dissolved in: (1) saline; (2) 8% vol/vol dimethyl sulfoxide; (3) glacial acetic acid neutralized with […]; or (4) NaOH neutralized with HCl.\nWith exception of dose-response curves, the experiments reported below tested whether or not there was an amnestic effect at 6.14 nmol of peptide per mouse.\n(§3) Apparatus, Training and Testing Procedures. The T-maze used for footshock active avoidance training (FAAT) consisted of a black plastic alley (46 cm long) with a start box at one end and two goal boxes (17.5 cm long) at the other. The start box was separated from the alley by a plastic guillotine door that prevented movement down the alley until training began. The alley was 12.5 cm deep and 9.8 cm wide. An electrifiable stainless steel rod floor ran throughout the maze.\n(§4) Mice were not permitted to explore the maze before training. A block of training trials began when a mouse was placed in the start box. The guillotine door was raised and a muffled doorbell-type buzzer sounded simultaneously; footshock was 5 seconds later through a scrambled grid floor shocker (Colbourn Instruments, Model E13-08). The goal box first entered during the first set of trials was designated as \"incorrect\", and footshock was continued until the mouse entered the other goal box, which in all subsequent trials was designated \"correct\" for the particular mouse. At the end of each group of trials, the mouse was removed to its home cage.\nAs training proceeded, a mouse made one of two types of responses. A response latency longer than 5 seconds was classed as an escape from the footshock. A response latency less than or equal to 5 seconds was considered an avoidance, since the mouse avoided receiving a footshock. Two exclusion criteria were applied to reduce learning variability among mice, as follows. On the first training trials, mice with escape latencies greater than 20 seconds were discarded. Mice not having at least one errorless escape latency between 1.5 and 3.5 seconds on training trials 3 or 4 were excluded. […] Mice received five such training trials. One week after training and post-trial administration of vehicle alone or vehicle containing test substance, T-maze training was resumed until each mouse made five avoidance responses in six consecutive training trials (trials to criterion). The recall score was taken to be the percentage of tested mice remembering original training.\nIn these instances, training was performed under conditions that tend to maximize learning (sound intensity, 65 decibels; footshock current, 0.35 mA; intertrial interval, 45 seconds)."}, "CD-1 male mice [2]": {"system": "CD-1 male mice", "experiment": "FAAT in T-maze, memory-enhancement test in weakly trained mice (poor retention in vehicle controls), post-training ICV injection", "assay_type": "in vivo", "settings": "for Lowest Concentration For Significant Memory Enhancement: Table 1", "experimental": "as §1\nas §2, with “HCl. […] Analysis of variance showing insignificant differences among the latter, the value for the most frequently employed (No. 2 above) was used for comparison with groups receiving test peptides.” for “HCl.”\nas §3, §4\nAs training proceeded, a mouse made one of two types of responses. A response latency longer than 5 seconds was classed as an escape from the footshock. A response latency less than or equal to 5 seconds was considered an avoidance, since the mouse avoided receiving a footshock. Two exclusion criteria were applied to reduce learning variability among mice, as follows. On the first training trials, mice with escape latencies greater than 20 seconds were discarded. Mice not having at least one errorless escape latency between 1.5 and 3.5 seconds on training trials 3 or 4 were excluded. The total exclusions were fewer than 15%. Mice received five such training trials. One week after training and post-trial administration of vehicle alone or vehicle containing test substance, T-maze training was resumed until each mouse made five avoidance responses in six consecutive training trials (trials to criterion). The recall score was taken to be the percentage of tested mice remembering original training.\nWell-trained animals (recall score approximately 80%) were used to determine whether or not administered substances could cause amnesia. In these instances, training was performed under conditions that tend to maximize learning (sound intensity, 65 decibels; footshock current, 0.35 mA; intertrial interval, 45 seconds). In the cases in which it was desired to detect whether or not there was an enhancing effect on memory, training conditions were adjusted so that the initial recall score in vehicle controls was only approximately 20% (sound intensity, 55 decibels; footshock current, 0.30 mA; intertrial interval, 30 seconds). […]"}, "CD-1 male mice [3]": {"system": "CD-1 male mice", "settings": "cited from earlier work; for amnestic effect on retention of FAAT (earlier publications): post-training ICV, references 1 and 12"}, "[4]": {"system": "hippocampal neurons in culture", "settings": "reference 17; cited from earlier work"}, "[5]": {"settings": "references 13-16; cited from earlier work"}},
  "note": "Ends that are not written are not given here. Peptide text beside a SMILES is read from it.",
  "data": [
    {"compound": "NC(=O)CC[C@H](N)C(=O)N[C@@H](Cc1ccccc1)C(=O)N[C@@H](Cc1ccccc1)C(=O)NCC(=O)O", "note": "[Gln Phe Phe Gly] (H-QFFG-OH)", "values": [
      {"measurement": "amnestic effect on retention of FAAT", "setting": "CD-1 male mice [1]; post-training ICV", "result": "amnestic"},
      {"measurement": "dose at which statistically significant memory enhancement found", "setting": "CD-1 male mice [2]; weakly trained animals", "result": "10^-14 moles/mouse"},
      {"measurement": "memory-enhancing potency compared with other peptides", "setting": "CD-1 male mice [2]; weakly trained mice", "result": "by far the most potent"},
      {"measurement": "Lowest Concentration For Significant Memory Enhancement", "setting": "CD-1 male mice [2]; weakly trained mice", "result": "6 × 10^-14 Moles/Mouse"}
    ]},
    {"compound": "N[C@@H](Cc1ccccc1)C(=O)N[C@@H](Cc1ccccc1)C(=O)O", "note": "[Phe Phe] (H-Phe-Phe-OH)", "values": [
      {"measurement": "amnestic effect on retention of FAAT", "setting": "CD-1 male mice [1]; post-training ICV", "result": "amnestically ineffective"},
      {"measurement": "mean trials to criterion ±SEM", "setting": "CD-1 male mice [1]; post-training ICV, 6.14 nmol per mouse, vehicle 6.80±0.21", "result": "7.0±0.42"}
    ]},
    {"compound": "CC(C)[C@H](N)C(=O)N[C@@H](Cc1ccccc1)C(=O)N[C@@H](Cc1ccccc1)C(=O)O", "note": "[Val Phe Phe] (H-Val-Phe-Phe-OH)", "values": [
      {"measurement": "amnestic efficacy/potency compared with another peptide", "setting": "CD-1 male mice [1]; ICV", "result": "not significantly different from that of the β-A4 homologue [Gln^11 ]β-(1-28)"},
      {"measurement": "dose at which amnesia first noted", "setting": "CD-1 male mice [1]; ICV, well-trained animals", "result": "3×10^-9 moles/mouse"},
      {"measurement": "amnestic effect on retention of FAAT", "setting": "CD-1 male mice [1]; post-training ICV", "result": "amnestic"},
      {"measurement": "dose at which statistically significant memory enhancement found", "setting": "CD-1 male mice [2]; weakly trained animals", "result": "1.9×10^-11 moles/mouse"},
      {"measurement": "memory-enhancing effect", "setting": "CD-1 male mice [2]; weakly trained animals", "result": "memory enhancer"},
      {"measurement": "Lowest Concentration For Significant Memory Enhancement", "setting": "CD-1 male mice [2]; weakly trained mice", "result": "1.9 × 10^-11 Moles/Mouse"}
    ]},
    {"compound": "CC(C)[C@H](N)C(=O)N[C@@H](Cc1ccccc1)C(=O)N[C@H](C(=O)O)[C@@H](C)O", "note": "[Val Phe Thr] (H-Val-Phe-Thr-OH)", "values": [
      {"measurement": "amnestic effect on retention of FAAT", "setting": "CD-1 male mice [1]; post-training ICV", "result": "amnestic"}
    ]},
    {"compound": "His Ser Asp Ala Val Phe Thr Asp Asn Tyr Thr Arg Leu Lys Gln Met Ala Val Lys Lys Tyr Leu Asn Ser Ile Leu Asn-NH2 (HSDAVFTDNYTRLKQMAVKKYLNSILN-NH2) [VIP]", "values": [
      {"measurement": "amnestic effect on retention of FAAT (earlier publications)", "setting": "CD-1 male mice [3]", "result": "amnestic"}
    ]},
    {"compound": "KLVFFAE [Lys Leu Val Phe Phe Ala Glu]", "values": [
      {"measurement": "amnestic effect on retention of FAAT", "setting": "CD-1 male mice [1]; post-training ICV", "result": "not amnestic"}
    ]},
    {"compound": "Pro Arg Pro Gly Pro Gln Gln Phe Phe Gly Leu Met-NH2 (PRPGPQQFFGLM-NH2) [Substance Pro]", "values": [
      {"measurement": "effect on trophic and toxic effects of β-A4 on hippocampal neurons", "setting": "[4]", "result": "counteract trophic and toxic effects of B-A4 on hippocampal neurons in culture"},
      {"measurement": "memory retention (literature)", "setting": "[5]", "result": "enhance memory retention"}
    ]},
    {"compound": "VFFAE [Val Phe Phe Ala Glu]", "values": [
      {"measurement": "amnestic efficacy/potency compared with another peptide", "setting": "CD-1 male mice [1]; ICV", "result": "lesser potency of Val Phe Phe Ala Glu than that of Val Phe Phe"},
      {"measurement": "amnestic effect on retention of FAAT", "setting": "CD-1 male mice [1]; post-training ICV", "result": "amnestic"}
    ]},
    {"compound": "VFFAEDVGSNK [β-(18-28)]", "values": [
      {"measurement": "amnestic effect on retention of FAAT (earlier publications)", "setting": "CD-1 male mice [3]", "result": "amnestic"}
    ]},
    {"compound": "β-(1-18): β-A4 fragment as printed in b47; probably the β-(1-28) homologue of reference 1 (DAEFRHDSGYEVHHQKLV; Amyloid-beta protein 42; UniProt P05067 672-689, looked up, fragment)", "values": [
      {"measurement": "dose at which active (amnestic)", "setting": "CD-1 male mice [3]; ICV, reference 1", "result": 1.5, "unit": "nmol per mouse"}
    ]}
  ]
}
